This note sets out measurements from patent publication US20120077737A1, “HEPATITIS C INHIBITOR COMPOUNDS” (priority 2009, published 2012).

Test [1] concerns HCV genotype 1b subgenomic replicon with NS3 resistance mutation D168V. Nature of the test: HCV replicon RNA replication assay, D168V 1b. It is filed as cell-based, HCV genotype 1b (Con-1), Huh-7 cells. To be noted: Hepatitis C virus, Huh-7, 72 h, read-out: D168V 1b Ec50 (nM). In general terms: Replicon systems follow genome replication, usually without infectious particles.
Test [2] relates to HCVPV1b subgenomic replicon (wild type 1b). In words: HCV replicon RNA replication assay, wild type 1b. The format is cell-based, HCV genotype 1b (Con-1), Huh-7 cells. The settings on record: Hepatitis C virus; Table 1; luciferase replicon, Huh-7, 72 h; read-out: WT 1b Ec50.
Test [3] deals with HCV genotype 1a subgenomic replicon with NS3 resistance mutation R155K. Nature of the test: HCV replicon RNA replication assay, R155K 1a. It is filed as cell-based, HCV genotype 1a (strain H77), Huh-7 cells. To be noted: Hepatitis C virus, Huh-7, 72 h, read-out: R155K 1a Ec50 (nM).
Test [4] concerns HCVPV1a subgenomic replicon (wild type 1a). In words: HCV replicon RNA replication assay, wild type 1a. It is filed as cell-based, HCV genotype 1a (strain H77), Huh-7 cells. The settings on record: Hepatitis C virus; Table 1; luciferase replicon, Huh-7, 72 h; read-out: WT 1a Ec50.
Test [5] relates to HCV genotype 1a subgenomic replicon with NS3 resistance mutation D168V. In words: HCV replicon RNA replication assay, D168V 1a. It is filed as cell-based, HCV genotype 1a (strain H77), Huh-7 cells. To be noted: Hepatitis C virus, Huh-7, 72 h, read-out: D168V 1a Ec50 (nM).

One may read the EC50 as the concentration giving half of the maximal effect. Turning to `COc1ccc2c(O[C@@H]3C[C@H]4C(=O)N[C@]5(C(=O)NS(=O)(=O)C6(C)CC6)C[C@H]5/C=C\CCCCC[C@H](NC(=O)c5ccn(C)n5)C(=O)N4C3)cc(OC(C)C)nc2c1C` [Compound 1007, (2R,6S,12Z,13aS,14aR,16aS)-2-{[7-methoxy-8-methyl-2-(propan-2-yloxy)quinolin-4-yl]oxy}-N-[(1-methylcyclopropyl)sulfonyl]-6-{[(1-methyl-1H-pyrazol-3-yl)carbonyl]amino}-5,16-dioxo-1,2,3,6,7,8,9,10,11,13a,14,15,16,16a-tetradecahydrocyclopropa[e]pyrrolo[1,2-a][1,4]diazacyclopentadecine-14a(5H)-carboxamide], the EC50 in test [1] came to 0.18 nM; in test [2], 0.2 nM; in test [3], 1.7 nM; in test [4] it was 0.25 nM; in test [5], 4.5 nM.
Consider `Cc1c(F)ccc2c(O[C@@H]3C[C@H]4C(=O)N[C@]5(C(=O)NS(=O)(=O)C6(C)CC6)C[C@H]5/C=C\CCCCC[C@H](NC(=O)c5ccn(C)n5)C(=O)N4C3)cc(OC(C)C)nc12` [Compound 1008, (2R,6S,12Z,13aS,14aR,16aS)-2-{[7-fluoro-8-methyl-2-(propan-2-yloxy)quinolin-4-yl]oxy}-N-[(1-methylcyclopropyl)sulfonyl]-6-{[(1-methyl-1H-pyrazol-3-yl)carbonyl]amino}-5,16-dioxo-1,2,3,6,7,8,9,10,11,13a,14,15,16,16a-tetradecahydrocyclopropa[e]pyrrolo[1,2-a][1,4]diazacyclopentadecine-14a(5H)-carboxamide], for which the EC50 came to 0.2 nM in test [1]; 0.35 nM in test [2]; 1.9 nM in test [3]; 0.24 nM in test [4]; 6.6 nM in test [5].
In the case of `COCc1ccc(C(=O)N[C@H]2CCCCC/C=C\[C@@H]3C[C@@]3(C(=O)NS(=O)(=O)C3CC3)NC(=O)[C@@H]3C[C@@H](Oc4cc(OC(C)C)nc5c(C)c(OC)ccc45)CN3C2=O)s1` [Compound 1009, (2R,6S,12Z,13aS,14aR,16aS)-N-(cyclopropylsulfonyl)-2-{[7-methoxy-8-methyl-2-(propan-2-yloxy)quinolin-4-yl]oxy}-6-({[5-(methoxymethyl)thiophen-2-yl]carbonyl}amino)-5,16-dioxo-1,2,3,6,7,8,9,10,11,13a,14,15,16,16a-tetradecahydrocyclopropa[e]pyrrolo[1,2-a][1,4]diazacyclopentadecine-14a(5H)-carboxamide], the EC50 in test [1] worked out at 0.24 nM; in test [2], 0.46 nM; in test [3], 3.6 nM; in test [4], 0.43 nM; in test [5] it was 7.2 nM.
For the compound `COc1ccc2c(O[C@@H]3C[C@H]4C(=O)N[C@]5(C(=O)NS(=O)(=O)C6(C)CC6)C[C@H]5/C=C\CCCCC[C@H](NC(=O)c5cnn(CC(F)F)n5)C(=O)N4C3)cc(OC(C)C)nc2c1C` [Compound 1010, (2R,6S,12Z,13aS,14aR,16aS)-6-({[2-(2,2-difluoroethyl)-2H-1,2,3-triazol-4-yl]carbonyl}amino)-2-{[7-methoxy-8-methyl-2-(propan-2-yloxy)quinolin-4-yl]oxy}-N-[(1-methylcyclopropyl)sulfonyl]-5,16-dioxo-1,2,3,6,7,8,9,10,11,13a,14,15,16,16a-tetradecahydrocyclopropa[e]pyrrolo[1,2-a][1,4]diazacyclopentadecine-14a(5H)-carboxamide], the EC50 in test [1] is 0.26 nM; in test [2] it was 0.37 nM; in test [3] it was 4.6 nM; in test [4], 0.3 nM; in test [5], 5.6 nM.
The like results for `COc1ccc2c(O[C@@H]3C[C@H]4C(=O)N[C@]5(C(=O)NS(=O)(=O)C6CC6)C[C@H]5/C=C\CCCCC[C@H](NC(=O)c5ccn(CC(F)F)n5)C(=O)N4C3)cc(OC(C)C)nc2c1C` [Compound 1011, (2R,6S,12Z,13aS,14aR,16aS)-N-(cyclopropylsulfonyl)-6-({[1-(2,2-difluoroethyl)-1H-pyrazol-3-yl]carbonyl}amino)-2-{[7-methoxy-8-methyl-2-(propan-2-yloxy)quinolin-4-yl]oxy}-5,16-dioxo-1,2,3,6,7,8,9,10,11,13a,14,15,16,16a-tetradecahydrocyclopropa[e]pyrrolo[1,2-a][1,4]diazacyclopentadecine-14a(5H)-carboxamide] were, in that order, 0.24 nM, 0.35 nM, 3.9 nM, 0.43 nM and 6.4 nM.
The like results for `COc1c(F)ccc2c(O[C@@H]3C[C@H]4C(=O)N[C@]5(C(=O)NS(=O)(=O)C6(C)CC6)C[C@H]5/C=C\CCCCC[C@H](NC(=O)c5ccn(C)n5)C(=O)N4C3)cc(OC(C)C)nc12` [Compound 1013, (2R,6S,12Z,13aS,14aR,16aS)-2-{[7-fluoro-8-methoxy-2-(propan-2-yloxy)quinolin-4-yl]oxy}-N-[(1-methylcyclopropyl)sulfonyl]-6-{[(1-methyl-1H-pyrazol-3-yl)carbonyl]amino}-5,16-dioxo-1,2,3,6,7,8,9,10,11,13a,14,15,16,16a-tetradecahydrocyclopropa[e]pyrrolo[1,2-a][1,4]diazacyclopentadecine-14a(5H)-carboxamide] were, in that order, 0.45 nM, 0.37 nM, 1.6 nM, 0.5 nM and 0.75 nM.
On to `COc1ccc2c(O[C@@H]3C[C@H]4C(=O)N[C@]5(C(=O)NS(=O)(=O)C6CC6)C[C@H]5/C=C\CCCCC[C@H](NC(=O)c5ccc(C(C)(C)O)s5)C(=O)N4C3)cc(OC(C)C)nc2c1C` [Compound 1014, (2R,6S,12Z,13aS,14aR,16aS)-N-(cyclopropylsulfonyl)-6-({[5-(2-hydroxypropan-2-yl)thiophen-2-yl]carbonyl}amino)-2-{[7-methoxy-8-methyl-2-(propan-2-yloxy)quinolin-4-yl]oxy}-5,16-dioxo-1,2,3,6,7,8,9,10,11,13a,14,15,16,16a-tetradecahydrocyclopropa[e]pyrrolo[1,2-a][1,4]diazacyclopentadecine-14a(5H)-carboxamide], for which the EC50 in test [1] came to 0.82 nM; in test [2], 1.2 nM; in test [3] it was 8.5 nM; in test [4] it was 1.2 nM; in test [5], 6.3 nM.
In the case of `Cc1c(O)ccc2c(O[C@@H]3C[C@H]4C(=O)N[C@]5(C(=O)NS(=O)(=O)C6(C)CC6)C[C@H]5/C=C\CCCCC[C@H](NC(=O)c5ccn(C)n5)C(=O)N4C3)cc(OC(C)C)nc12` [Compound 1015, (2R,6S,12Z,13aS,14aR,16aS)-2-{[7-hydroxy-8-methyl-2-(propan-2-yloxy)quinolin-4-yl]oxy}-N-[(1-methylcyclopropyl)sulfonyl]-6-{[(1-methyl-1H-pyrazol-3-yl)carbonyl]amino}-5,16-dioxo-1,2,3,6,7,8,9,10,11,13a,14,15,16,16a-tetradecahydrocyclopropa[e]pyrrolo[1,2-a][1,4]diazacyclopentadecine-14a(5H)-carboxamide], the EC50 in test [1] worked out at 0.96 nM; in test [2], 1.3 nM; in test [3], 0.95 nM; in test [4], 0.96 nM; in test [5], 6.9 nM.
For the compound `COc1c(F)ccc2c(O[C@@H]3C[C@H]4C(=O)N[C@]5(C(=O)NS(=O)(=O)C6CC6)C[C@H]5/C=C\CCCCC[C@H](NC(=O)c5ccn(C)n5)C(=O)N4C3)cc(OC(C)C)nc12` [Compound 1016, (2R,6S,12Z,13aS,14aR,16aS)-N-(cyclopropylsulfonyl)-2-{[7-fluoro-8-methoxy-2-(propan-2-yloxy)quinolin-4-yl]oxy}-6-{[(1-methyl-1H-pyrazol-3-yl)carbonyl]amino}-5,16-dioxo-1,2,3,6,7,8,9,10,11,13a,14,15,16,16a-tetradecahydrocyclopropa[e]pyrrolo[1,2-a][1,4]diazacyclopentadecine-14a(5H)-carboxamide], the EC50 in test [1] was determined as 1 nM; in test [2], 1.1 nM; in test [3], 7.9 nM; in test [4] it was 1.5 nM; in test [5], 3.9 nM.
Turning to `COc1ccc2c(O[C@@H]3C[C@H]4C(=O)N[C@]5(C(=O)NS(=O)(=O)C6(C)CC6)C[C@H]5/C=C\CCCCC[C@H](NC(=O)c5ccn(CC(=O)N(C)C)n5)C(=O)N4C3)cc(OC(C)C)nc2c1C` [Compound 1017, (2R,6S,12Z,13aS,14aR,16aS)-6-[({1-[2-(dimethylamino)-2-oxoethyl]-1H-pyrazol-3-yl}carbonyl)amino]-2-{[7-methoxy-8-methyl-2-(propan-2-yloxy)quinolin-4-yl]oxy}-N-[(1-methylcyclopropyl)sulfonyl]-5,16-dioxo-1,2,3,6,7,8,9,10,11,13a,14,15,16,16a-tetradecahydrocyclopropa[e]pyrrolo[1,2-a][1,4]diazacyclopentadecine-14a(5H)-carboxamide], the EC50 stood at 1.5 nM in test [1]; 1.1 nM in test [2]; 1.2 nM in test [3]; 1.1 nM in test [4]; 2.7 nM in test [5].
